How the values were obtained:
HT29 cells = experiment: Emergence of resistance to encorafenib in HT29 cells (FIGS. 5-8); type: cell-based
Experimental: FIGS. 5A-B are graphs that show the emergence of resistance to Encorafenib in the HT29 cell line across an incubation time of 3 weeks and measured by the percentage of cell viability. Cells were treated with 5 μM Encorafenib (FIG. 5A) or 10 μM Encorafenib (FIG. 5B) and incubated with EGF at 0.0 ng/mL, 0.1 ng/mL, Ing/mL, and 10 ng/mL.
FIGS. 6A-B are graphs that show the emergence of resistance to Encorafenib in the HT29 cell line across an incubation time of 15 weeks and measured by the percentage of cell viability.
FIGS. 7A-B are graphs that show the emergence of resistance to Encorafenib in the HT29 cell line across an incubation time of 15 weeks and measured by the percentage of cell viability. […] All tests were conducted at 1.0 ng/ml EGF
FIGS. 8A-B are graphs that show the emergence of resistance to 10 μM Encorafenib in the HT29 cell line with an incubation time of 90 days and measured by the percentage of tumor cell-free wells.
The effect of cells incubated with 5 μM encorafenib and treated with different concentrations of EGF were tested for cell viability during 3 weeks of incubation.
Next, the effects on cells incubated with 0.1 ng/mL EGF were tested.
The effects on cells incubated with 1.0 ng/mL EGF were tested over 15 weeks. The same conditions were repeated as in FIGS. 6A-B with the only difference being the 10-fold increase in EGF (FIG. 7A).
Lastly, the effects of HT29 cells incubated with 0.1 ng/ml and 1.0 ng/mLEGF were tested over a course of 90 days (FIGS. 8A-B).

[1] = test system: pEGFR(Tyr1068), pPRAS40(Thr 246) in HT29 cells; experiment: Western blot of total and phosphorylated EGFR and PRAS40 in HT29 cells with EGF, 2 hours (FIG. 4); type: cell-based; conditions: cetuximab 1/75, encorafenib 0.05 μM
Text: C in the first lane stands for control, non-treated cell line sample. The second lane is the same control cell receiving EGF.
C in the first lane stands for control, non-treated cell line sample. Second lane is same control cell receiving EGF.

[2] = clinical data, BRAF V600E mutation-positive advanced melanoma; cited from earlier work
[3] = test system: EGFR-mut NSCLC cell lines; conditions: cited from earlier work
[4] = 10 μM versus 5 μM encorafenib, EGF 0.0-10 ng/mL, 3 weeks

In the case of COC(=O)N[C@@H](C)CNc1nccc(-c2cn(C(C)C)nc2-c2cc(Cl)cc(NS(C)(=O)=O)c2F)n1 [Encorafenib], the “growth of positive cells (emergence of resistance)” value (HT29 cells; 0.1 ng/mL EGF, encorafenib 10 μM, 15 weeks) is reported as “allows the growth of positive cells to a much greater extent”, the “positive growth (emergence of resistance)” value (HT29 cells; 1.0 ng/mL EGF, 15 weeks) is reported as “resistance” and the “proliferation / percentage of viable cells (positive wells)” value (HT29 cells; [4]) is reported as “substantially lower”. For the same compound, the “time point at which resistance began” value (HT29 cells; [4]) was “earlier time point”, the “proliferation / percentage of viable cells (positive wells)” value (HT29 cells; 10 μM versus 5 μM encorafenib, EGF 0.0-10 ng/mL, 3 weeks, listed as encorafenib) was “lower proliferation of cells than with 5 μM encorafenib, but not by much” and the “inhibition of pPRASO” value [1] was “did not inhibit”.

In the case of CC(C)(C)c1nc(-c2cccc(NS(=O)(=O)c3c(F)cccc3F)c2F)c(-c2ccnc(N)n2)s1 [dabrafenib, Dabrafenib], the “time to occurrence of resistance” value [2] is listed as “within six to seven months”.

In the case of C=CC(=O)Nc1cc(Nc2nccc(-c3cn(C)c4ccccc34)n2)c(OC)cc1N(C)CCN(C)C [osimertinib], the “antiproliferative effects of the TKI when EGF is present” value [3] is given as “significantly reduced”.
